Among the data in patent US6596694B2, “Caloporoside derivatives, methods of their preparation and use” (Aventis Pharma Deutschland GmbH, priority 2001, dated 2003) are IC50 values, retold here.

Sequence of cyclin D1/CDK4 (P11802 whole entry, species assumed): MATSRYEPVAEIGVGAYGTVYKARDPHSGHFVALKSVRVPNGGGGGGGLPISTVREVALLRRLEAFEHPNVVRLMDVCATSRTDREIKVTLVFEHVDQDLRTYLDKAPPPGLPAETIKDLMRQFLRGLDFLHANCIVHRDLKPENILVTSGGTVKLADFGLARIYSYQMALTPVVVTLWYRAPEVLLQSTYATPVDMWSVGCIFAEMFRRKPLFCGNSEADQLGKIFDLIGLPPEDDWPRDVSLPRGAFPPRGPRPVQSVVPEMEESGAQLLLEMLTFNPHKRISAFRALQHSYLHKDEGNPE
Sequence of cyclin D1/CDK4 (P24385 whole entry partner, species assumed): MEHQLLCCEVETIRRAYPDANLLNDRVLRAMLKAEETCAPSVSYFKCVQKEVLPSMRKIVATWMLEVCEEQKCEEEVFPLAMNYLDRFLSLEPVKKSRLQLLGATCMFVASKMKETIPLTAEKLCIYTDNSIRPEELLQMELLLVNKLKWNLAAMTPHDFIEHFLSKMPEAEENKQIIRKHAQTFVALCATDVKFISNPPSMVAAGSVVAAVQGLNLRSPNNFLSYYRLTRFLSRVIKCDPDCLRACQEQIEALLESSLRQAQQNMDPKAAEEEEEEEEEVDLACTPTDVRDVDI

The target of the test is cyclin D1/CDK4 (Homo sapiens, UniProt P11802). Description: Bioassay for CDK-4 inhibitors (phosphorylation of biotinylated peptide substrate, 33P-γ-ATP, flash plates). As to conditions: 2 μM ATP, 2 hours at 37° C., 10 concentrations; read-out: IC50 (concentration which deactivates 50% of CDK-4). It is filed as biochemical. As for the experimental part:
In order to detect the inhibitors of cyclin-dependent kinases (CDKs), use is made of a test in which the phosphorylation rate by the cyclin-dependent kinases of a specific peptide substrate is measured. The cyclin-dependent kinases are activated when the kinase binds to its respective cyclin. A [γ-P]-phosphate is transferred from [γ-P]-ATP to the peptide substrate by the activated CDK. The test is carried out in 96-well microtiter plates. The radioactivity of the [γ-P]-phosphate on the substrate is measured.
IC50 values for the caloporoside derivatives are shown in Table 1; this is the concentration which deactivates 50% of CDK-4.
For the determination of the IC50 value, stock solutions of the caloporoside derivatives according to the invention were prepared in a concentration of 10 mM. […] flash plates were coated with 50 μl (50 μg/well) of biotinylated peptide substrate at room temperature, incubated for 2 hours, and subsequently washed 3× with PBS buffer. For the reaction, 30 μl of a buffer-diluted solution of the caloporoside derivatives and 20 μl of a pre-mixed ATP/cyclin D1/CDK4 solution (final concentration: 1 μCl of 33P-γ-ATP, 2 μM of ATP and 1 μg of enzyme mixture) were pipetted onto the plates. After a reaction time of 2 hours at 37° C., the plates were washed 3× with 80 μl of 3% phosphoric acid. Radioactivity was subsequently measured for 30 seconds in a MicroBeta counter. The percentage inhibition was determined with the aid of mathematical equations. For the determination of IC50 values, 10 different concentrations of the compounds according to the invention in a freshly diluted DMSO solution were tested.
For the compound `CC(=O)OC1C(O)C(CO)OC(OC(COC(=O)CC(=O)O)C(O)C(O)C(O)C(=O)OC(C)CCCCCCCCCCCCCCCc2cccc(O)c2C(=O)O)C1O` (centres unmarked) [Caloporoside E], the IC50 was found to be 1800 nM.

With `CC(=O)Oc1cccc(CCCCCCCCCCCCCCCC(C)OC(=O)C(O)C(O)C(O)C(COC(=O)CC(=O)O)OC2OC(CO)C(O)C(O)C2OC(C)=O)c1C(=O)O` (centres unmarked) [Caloporoside C], the IC50 turned out to be 3100 nM. Turning to `CC(=O)OC1C(OC(CO)C(O)C(O)C(O)C(=O)OC(C)CCCCCCCCCCCCCCCc2cccc(O)c2C(=O)O)OC(CO)C(O)C1O` (centres unmarked) [Caloporoside F], the IC50 is 1500 nM. In the case of `CC(=O)Oc1cccc(CCCCCCCCCCCCCCCC(C)OC(=O)C(O)C(O)C(O)C(CO)OC2OC(CO)C(O)C(O)C2O)c1C(=O)O` (centres unmarked) [Caloporoside B], the IC50 was determined as 1500 nM. The same measure for `CC(=O)OC1C(OC(COC(=O)CC(=O)O)C(O)C(O)C(O)C(=O)OC(C)CCCCCCCCCCCCCCCc2cccc(O)c2C(=O)O)OC(CO)C(O)C1O` (centres unmarked) [Caloporoside D]: 1800 nM.
